Measurements taken from publication PMC6028423, “Synthetic molecular evolution of hybrid cell penetrating peptides” (Nature Communications, 2018).

Columns and labels:
HeLa cells = experiment: TAMRA delivery assay, flow cytometry; type: cell-based, human; settings: tested as peptide-TA; 0.5 µM peptide-TA + 4.5 µM peptide-C, 30 min, serum-free DMEM, trypsinized, live SYTOX Green-negative cells; temperature not given
Description: (§1) Parent and daughter sequences lacking the PNA cargo were characterized to determine the effect of the cargo on delivery. Sequences were labeled with the fluorophore tetramethylrhodamine (TAMRA) on a C-terminal cysteine residue (PDEP-TA) and their delivery to multiple human cell types was measured by flow cytometry. To test the efficiency under stringent conditions, we used peptide concentrations of only 5 μM total containing 0.5 μM dye-labeled peptide. Peptides were incubated with HeLa, RAW264.7, HepG2, and MCF-7 cells for 30 min at 4 °C, 21 °C, or 37 °C, followed by trypsinization to detach cells for counting and to digest any externally bound peptide. PDEP-TA conjugates are not toxic at this concentration range (Supplementary Figure 2). Flow cytometric analysis (Fig. 3 and Supplementary Figure 4) was used to count TAMRA-positive cells and to measure TAMRA intensity distributions. Confocal microscopy was used to visualize peptide distribution in cells for each cell type (Fig. 3). Time series confocal images of PDEP P17-TA incubated HeLa cells at 21 °C and 37 °C (Fig. 3a) show immediate punctate membrane association. At 37 °C, but not at 21 °C, uptake of dye in punctate structures is observed. At both temperatures, individual cells rapidly and stochastically show the appearance of TAMRA with a diffuse cytosolic distribution in addition to bright puncta. All PDEPs behave similarly and maximum intensity is reached by 30 min at all temperatures. Cell surface-bound peptide is not observed under flow cytometry conditions (Fig. 3a).
(§2) HeLa, RAW264.7, HCT116, HepG2, and MCF-7 cells were plated in 12-well plates at 100,000 cells/well. After 24 h, cells were gently washed in PBS, topped with 500 µl of PDEP-TA solution containing 0.5 µM PDEP-TA + 4.5 µM PDEP-C in sfDMEM without phenol red, and incubated for 30 min at either 4 °C, 23 °C, or 37 °C. […] Cells were transferred to a filter-topped flow cytometry tube and analyzed on a BD LSR II flow cytometer. Cells displaying a normal morphology were gated and first analyzed for GFP fluorescence using the […] laser. GFP-negative cells were used to generate a histogram of TAMRA fluorescence, measured with the […] laser.
(§3) Supplementary Figure 4. Flow cytometry gating strategy for Peptide-C-TA treated cells. In this example, HeLa cells were treated with 5 μM P17-C-TA for 30 minutes at 37°C. Live cells were identified by forward and side scatter. Doublets were excluded in two gating steps using SSC-H x SSC-W and FSC-H x FSC-W. Cells with compromised membranes permitting SYTOX green entry were excluded. The percent of the remaining cells testing positive for TAMRA fluorescence were defined as those with a fluorescence value ≥3000. Additionally, the mean fluorescence for all SYTOX negative cells was recorded.

HepG2 cells = experiment: TAMRA delivery assay, flow cytometry; type: cell-based, human; settings: tested as peptide-TA; 0.5 µM peptide-TA + 4.5 µM peptide-C, 30 min, serum-free DMEM, trypsinized, live SYTOX Green-negative cells; temperature not given
Description: as §1, §2, §3

MCF-7 cells = experiment: TAMRA delivery assay, flow cytometry; type: cell-based, human; settings: tested as peptide-TA; 0.5 µM peptide-TA + 4.5 µM peptide-C, 30 min, serum-free DMEM, trypsinized, live SYTOX Green-negative cells; temperature not given
Description: as §1, §2, §3

RAW264.7 cells = experiment: TAMRA delivery assay, flow cytometry; type: cell-based; settings: tested as peptide-TA; 0.5 µM peptide-TA + 4.5 µM peptide-C, 30 min, serum-free DMEM, trypsinized, live SYTOX Green-negative cells; temperature not given
Description: (§4) Parent and daughter sequences lacking the PNA cargo were characterized to determine the effect of the cargo on delivery. Sequences were labeled with the fluorophore tetramethylrhodamine (TAMRA) on a C-terminal cysteine residue (PDEP-TA) and their delivery to multiple human cell types was measured by flow cytometry. To test the efficiency under stringent conditions, we used peptide concentrations of only 5 μM total containing 0.5 μM dye-labeled peptide. Peptides were incubated with HeLa, RAW264.7, HepG2, and MCF-7 cells for 30 min at 4 °C, 21 °C, or 37 °C, followed by trypsinization to detach cells for counting and to digest any externally bound peptide. PDEP-TA conjugates are not toxic at this concentration range (Supplementary Figure 2). […]
HeLa, RAW264.7, HCT116, HepG2, and MCF-7 cells were plated in 12-well plates at 100,000 cells/well. […] Cells were transferred to a filter-topped flow cytometry tube and analyzed on a BD LSR II flow cytometer. Cells displaying a normal morphology were gated and first analyzed for GFP fluorescence using the […] laser. GFP-negative cells were used to generate a histogram of TAMRA fluorescence, measured with the 543 nM laser.
Supplementary Figure 4. […] The percent of the remaining cells testing positive for TAMRA fluorescence were defined as those with a fluorescence value ≥3000. Additionally, the mean fluorescence for all SYTOX negative cells was recorded.

[1] = system: HeLa, RAW264.7, HepG2, and MCF-7 cells; experiment: TAMRA delivery, flow cytometry and confocal microscopy, statements over several cell types or cell type not stated; type: cell-based; settings: cell type and temperature not stated; threshold just above cells treated with free TAMRA; single example
Description: as §4, with “[…].” for “PDEP-TA conjugates are not toxic at this concentration range (Supplementary Figure 2).”
HeLa, RAW264.7, HCT116, HepG2, and MCF-7 cells were plated in 12-well plates at 100,000 cells/well. […] Cells were transferred to a filter-topped flow cytometry tube and analyzed on a BD LSR II flow cytometer. Cells displaying a normal morphology were gated and first analyzed for GFP fluorescence using the […] laser. GFP-negative cells were used to generate a histogram of TAMRA fluorescence, measured with the […] laser. […]
Cells were treated as described above for the TAMRA delivery assay and immediately imaged to avoid artifacts resulting from fixation. The distribution of TAMRA and Sytox Green was analyzed using a confocal scanning Nikon Eclipse Ti2 inverted microscope using a 40× oil-immersion objective. […]

[2] = system: HeLa pTRE-LucIVS2-705 cells; experiment: PNA705 mediated luciferase splice correction (luminescence per µg protein); type: cell-based, human; settings: for PNA705 delivery efficiency in words (Fig. 2a): tested as CPP-PNA705 conjugate, up to 5 µM
Description: Cells were treated for 30 min in serum-free media at 37 °C, and then allowed to recover for 24 h in complete media. […] After 24 h, cell lysates were assayed for luciferase by luminescence (Fig. 2a) and for splice corrected mRNA by quantitative PCR (Fig. 2b). To control for total cell density, lysates were also analyzed for total protein by the BCA assay.
HeLa pTRE-LucIVS2-705 cells were seeded on flat-bottom 96-well plates at 10,000 cells per well in 200 µl complete DMEM. The following day, cells were washed in phosphate buffered saline and topped with premixed 50 µl 2× serum/phenol red-free DMEM (Gibco) + 50 µl peptide cleavage solution (ddH2O + peptide). Cells were transfected for 30 min at 37 °C with 5% CO2. The transfection solution was removed, cells were topped with 100 µl complete DMEM. The next day (24-h recovery) cells were washed in PBS. Cells were lysed in 20 µl reporter lysis buffer (Promega E4030) following the manufacturer’s protocol. A volume of 10 μl of lysate from each well was transferred to a 96-well solid black plate; 100 μl of luciferase assay reagent from the Luciferase Assay System (Promega E1500) was added, the plate was agitated for 10 s, and luminescence was measured with a BioTek Synergy 2 plate reader with injector ports. Total protein was measured with a BCA assay (described below). Data were expressed as RLU per µg protein (RLU (µg protein)^−1). During screening, positive wells were defined as those whose RLU per µg protein values exceeded the average for the plate by at least three standard deviations. Subsequent PNA705 delivery experiments were conducted as described above except that volumes were scaled for 24-well plate format.
The remaining 10 µl of lysate from the splice correction assay was combined with 100 µl of the BCA reagents and incubated for 1–4 h at 37 °C per the manufacturer’s protocol. Absorbance at 562 nm was measured using a measured with a BioTek Synergy 2 plate reader.

[3] = system: HeLa pTRE-LucIVS2-705 cells; experiment: qRT-PCR of correctly spliced luciferase mRNA; type: cell-based, human; settings: 1.25 µM CPP-PNA705, 30-min incubation, 24-h recovery
Description: To quantify splice correction at the mRNA level, we designed qRT-PCR primers to target the splice junction of the properly spliced mRNA transcript. […] We observe a >100 fold increase in properly spliced luciferase mRNA in cells treated with PDEP–PNA705 relative to control. At 5 μM, the most efficient chimera, P14-PNA705, is 30-fold better than tat, 7-fold better than penetratin, and 4-fold better than Arg9.
HeLa pTRE-LucIVS2 cells were treated as described above with PDEP–PNA705 constructs at varying concentrations. RNA was extracted using the Direct-Zol^TM RNA purification system (Zymo Research) and reverse transcribed with the iScript cDNA synthesis kit (Bio-Rad), and mRNA splice correction was detected using PowerUp SYBR Green master mix (ThermoFisher) on an Applied Biosystems QuantStudio 6 using the following primers sets: […]
The relative quantification of correctly spliced mRNA (90 bp amplicon) over background was calculated using the Pfaffl model.

| Compound | HeLa %+ (TAMRA-positive cells) (HeLa cells) | HEPG2 %+ (TAMRA-positive cells) (HepG2 cells) | MCF-7 %+ (TAMRA-positive cells) (MCF-7 cells) | RAW %+ (TAMRA-positive cells) (RAW264.7 cells) | TAMRA-positive cells, example flow cytometry results (Fig. 3b) [1] | PNA705 delivery efficiency, head-to-head comparison in the response to reviewers ([2]; PepB-PNA705, P17-PNA705, tat-PNA705 and no treatment, same approach as in the paper) | PNA705 delivery efficiency in words (Fig. 2a) [2] | increase in corrected mRNA over control [3] |
| --- | --- | --- | --- | --- | --- | --- | --- | --- |
| CN(C)c1ccc2c(-c3ccccc3C(=O)[O-])c3ccc(N(C)C)cc3[o+]c2c1 [TAMRA, tetramethylrhodamine] | 0.0% | 0.0% | 14.4% | 6.90% | 1.99% |  |  |  |
| (RXRRBR)2 [Peptide B, (RXRRBR)2, eight arginines and four linear linkers; drives delivery of splice correcting PMOs in vivo] |  |  |  |  |  | much more efficient than tat | relatively low PNA delivery efficiency |  |
| Arg9 | 8.1% | 16.6% | 1.6% | 64.5% |  |  | much better than tat itself | not measurably higher than control |
